Results from US20250313960A1, “CHOLINE HYDROXIDE FOR SALT DI[…] RENEWABLE FEEDSTOCK PROCESS” (Ecolab USA Inc., priority 2024, published 2025).

Key:
[1] = all temperatures; compared with NH4Cl; FIG. 2, literature values or calculated from solubility data
Procedure: The effectiveness of the salt to dissolve in the aqueous phase was determined by its critical relative humidity (CRH) at various temperatures. CRH was defined by the ratio of the partial pressure of water in the solution (Pw) to the partial pressure of pure water (P*w) shown below.
The CRH of the salt at a specified temperature was calculated from thermodynamic parameters found in the equation:
Where CRH was the critical relative humidity, T was the temperature, ΔHs was the heat of solution at infinite dilution, R is the gas constant, and A, B, and C are solubility parameters obtained from solubility as a function of temperature of the salt.
Data not available in the literature was experimentally performed in triplicate by an enthalpy experiment and a solubility experiment.
The enthalpy experiment was conducted by recording changes in temperature as different amounts of the salt dissolved in a set volume of water located in a calorimeter. The enthalpy of solution was calculated for each of the different amount of salt used. The enthalpy data was then fitted and extrapolated to determine enthalpy of solution at an infinite dilution.
The CRH values at room temperature were found in literature or calculated from the solubility data following the below equations.

[2] = in water; all tested temperatures; compared with NH4Cl; FIG. 1, literature and experimental data
Procedure: The solubility experiment was conducted by adding different amounts of salt to a set amount of water in glass vials. The amount of water used was such that the salt was mostly insoluble at room temperature. The vials were then heated up until all salts were dissolved. Temperature was recorded as each vial cooled. The temperature at which crystallization began was noted.

C[N+](C)(C)CCO.[Cl-] [ChCl, choline chloride]
critical relative humidity (CRH) [1]: lower | solubility as a function of temperature (mol salt/mol water) [2]: more soluble than NH4Cl
